# Source: PubChem BioAssay AID220 (DTP/NCI, 2004)
# Several values for one entry are separate records, joined by “and”; a condition that tells them apart may be missing. Equal entries are not always repeated. Records with an inconclusive call do not appear.
# Test system: CD8F1 mice, subcutaneous mammary adenocarcinoma, T/C%
# Assay: NCI In Vivo Anticancer Drug Screen. Data for tumor model Mammary Adenocarcinoma CD8F1 (subcutaneous) in CD8F1
# Settings: higher = larger tumour
# In short: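 Mice carrying transplanted tumors received test compound, and survival or tumor size was recorded. Each value is the treated-group measurement divided by the corresponding measurement in vehicle-dosed controls.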
# [1] = endpoint: median tumor weight (est.), dose: 25.0 mg/kg/injection, schedule: Q07DX005 (ip), vehicle: saline with Tween-80
# [2] = endpoint: median tumor weight (est.), dose: 50.0 mg/kg/injection, schedule: Q07DX005 (ip), vehicle: saline with Tween-80
# [3] = endpoint: median tumor weight (est.), dose: 25.0 mg/kg/injection, schedule: Q07DX005 (ip), vehicle: Klucel (hydroxypropylcellulose) (HPC)
# [4] = endpoint: median tumor weight (est.), dose: 50.0 mg/kg/injection, schedule: Q07DX005 (ip), vehicle: Klucel (hydroxypropylcellulose) (HPC)
# [5] = endpoint: median tumor weight (est.), dose: 100.0 mg/kg/injection, schedule: Q07DX005 (ip), vehicle: Klucel (hydroxypropylcellulose) (HPC)
# [6] = endpoint: median tumor weight (est.), dose: 200.0 mg/kg/injection, schedule: Q07DX005 (ip), vehicle: Klucel (hydroxypropylcellulose) (HPC)
# [7] = endpoint: median tumor weight (est.), dose: 400.0 mg/kg/injection, schedule: Q07DX005 (ip), vehicle: Klucel (hydroxypropylcellulose) (HPC)
compound,measurement,setting,value
BrCC[Se]c1ccccc1,T/C,"endpoint: median tumor weight (est.), dose: 6.25 mg/kg/injection, schedule: Q07DX005 (ip), vehicle: saline with Tween-80",78 % of control
same,T/C,"endpoint: median tumor weight (est.), dose: 12.5 mg/kg/injection, schedule: Q07DX005 (ip), vehicle: saline with Tween-80",104 % of control
same,T/C,[1],80 % of control
same,T/C,[2],152 % of control
NC(=O)c1cn(C2OC(CO)C(O)C2O)c2ncnc(N)c12 (stereo not drawn),T/C,"endpoint: median tumor weight (est.), dose: 1.0 mg/kg/injection, schedule: Q07DX005 (ip), vehicle: suspension in saline",63 % of control
same,T/C,"endpoint: median tumor weight (est.), dose: 2.0 mg/kg/injection, schedule: Q07DX005 (ip), vehicle: suspension in saline",27 % of control and 45 % of control
same,T/C,"endpoint: median tumor weight change, dose: 0.25 mg/kg/injection, schedule: Q01DX001 (ip), vehicle: saline",121 % of control
same,T/C,"endpoint: median tumor weight change, dose: 0.5 mg/kg/injection, schedule: Q01DX001 (ip), vehicle: saline",91 % of control
same,T/C,"endpoint: median tumor weight change, dose: 1.0 mg/kg/injection, schedule: Q01DX001 (ip), vehicle: saline",81 % of control
same,T/C,"endpoint: median tumor weight change, dose: 1.25 mg/kg/injection, schedule: Q01DX001 (ip), vehicle: suspension in saline",88 % of control
same,T/C,"endpoint: median tumor weight change, dose: 2.0 mg/kg/injection, schedule: Q01DX001 (ip), vehicle: saline",107 % of control
same,T/C,"endpoint: median tumor weight change, dose: 2.5 mg/kg/injection, schedule: Q01DX001 (ip), vehicle: suspension in saline",102 % of control
same,T/C,"endpoint: median tumor weight change, dose: 4.0 mg/kg/injection, schedule: Q01DX001 (ip), vehicle: saline",95 % of control
same,T/C,"endpoint: median tumor weight change, dose: 5.0 mg/kg/injection, schedule: Q01DX001 (ip), vehicle: suspension in saline",70 % of control
same,T/C,"endpoint: median tumor weight change, dose: 8.0 mg/kg/injection, schedule: Q01DX001 (ip), vehicle: saline",79 % of control
CO[C@H]1C[C@](C)(O)Cc2cc3c(c(O)c21)C(=O)c1c(O)cc2c(c1C3=O)O[C@@H]1O[C@@]2(C)[C@H](O)[C@@H](N(C)C)[C@@H]1O,T/C,"endpoint: median tumor weight (est.), dose: 7.0 mg/kg/injection, schedule: Q07DX005 (ip), vehicle: saline with Tween-80",62 % of control
same,T/C,"endpoint: median tumor weight (est.), dose: 11.0 mg/kg/injection, schedule: Q07DX005 (ip), vehicle: saline with Tween-80",60 % of control
same,T/C,"endpoint: median tumor weight (est.), dose: 16.0 mg/kg/injection, schedule: Q07DX005 (ip), vehicle: saline with Tween-80",75 % of control
same,T/C,"endpoint: median tumor weight (est.), dose: 24.0 mg/kg/injection, schedule: Q07DX005 (ip), vehicle: saline with Tween-80",64 % of control
same,T/C,"endpoint: median tumor weight (est.), dose: 48.0 mg/kg/injection, schedule: Q07DX005 (ip), vehicle: saline with Tween-80",10 % of control
N=C(N)c1ccc(/C=C/c2ccc(C(=N)N)cc2O)cc1,T/C,"endpoint: median tumor weight (est.), dose: 12.5 mg/kg/injection, schedule: Q07DX005 (ip), vehicle: water",75 % of control and 76 % of control
Nc1nc(=S)c2[nH]cnc2[nH]1,T/C,"endpoint: median tumor weight (est.), dose: 1.0 mg/kg/injection, schedule: Q07DX005 (ip), vehicle: Klucel (hydroxypropylcellulose) (HPC)",71 % of control
same,T/C,"endpoint: median tumor weight (est.), dose: 2.0 mg/kg/injection, schedule: Q07DX005 (ip), vehicle: Klucel (hydroxypropylcellulose) (HPC)",74 % of control
same,T/C,"endpoint: median tumor weight (est.), dose: 4.0 mg/kg/injection, schedule: Q07DX005 (ip), vehicle: Klucel (hydroxypropylcellulose) (HPC)",42 % of control
same,T/C,"endpoint: median tumor weight (est.), dose: 8.0 mg/kg/injection, schedule: Q07DX005 (ip), vehicle: Klucel (hydroxypropylcellulose) (HPC)",20 % of control
same,T/C,"endpoint: median tumor weight (est.), dose: 8.0 mg/kg/injection, schedule: Q07DX005 (ip), vehicle: other",29 % of control
same,T/C,"endpoint: median tumor weight (est.), dose: 12.0 mg/kg/injection, schedule: Q07DX005 (ip), vehicle: other",19 % of control
same,T/C,"endpoint: median tumor weight (est.), dose: 16.0 mg/kg/injection, schedule: Q07DX005 (ip), vehicle: Klucel (hydroxypropylcellulose) (HPC)",7 % of control
same,T/C,"endpoint: median tumor weight (est.), dose: 16.0 mg/kg/injection, schedule: Q07DX005 (ip), vehicle: other",16 % of control
NC(=S)N/N=C/c1ccc(OC(=O)COc2ccccc2)cn1,T/C,"endpoint: mean tumor weight, dose: 12.5 mg/kg/injection, schedule: Q07DX005 (ip), vehicle: saline with Tween-80",99 % of control
same,T/C,"endpoint: mean tumor weight, dose: 12.5 mg/kg/injection, schedule: Q07DX006 (ip), vehicle: saline with Tween-80",96 % of control
same,T/C,"endpoint: mean tumor weight, dose: 25.0 mg/kg/injection, schedule: Q07DX005 (ip), vehicle: saline with Tween-80",89 % of control
same,T/C,"endpoint: mean tumor weight, dose: 25.0 mg/kg/injection, schedule: Q07DX006 (ip), vehicle: saline with Tween-80",106 % of control
same,T/C,"endpoint: mean tumor weight, dose: 50.0 mg/kg/injection, schedule: Q07DX005 (ip), vehicle: saline with Tween-80",86 % of control
same,T/C,"endpoint: mean tumor weight, dose: 50.0 mg/kg/injection, schedule: Q07DX006 (ip), vehicle: saline with Tween-80",83 % of control
same,T/C,"endpoint: mean tumor weight, dose: 100.0 mg/kg/injection, schedule: Q07DX005 (ip), vehicle: saline with Tween-80",52 % of control
same,T/C,"endpoint: mean tumor weight, dose: 100.0 mg/kg/injection, schedule: Q07DX006 (ip), vehicle: saline with Tween-80",101 % of control
same,T/C,"endpoint: mean tumor weight, dose: 200.0 mg/kg/injection, schedule: Q07DX005 (ip), vehicle: saline with Tween-80",65 % of control
same,T/C,"endpoint: mean tumor weight, dose: 200.0 mg/kg/injection, schedule: Q07DX006 (ip), vehicle: saline with Tween-80",33 % of control
CCN(CC)c1ccc2cc(-c3nc4ccccc4n3C)c(=O)oc2c1,T/C,[3],62 % of control and 84 % of control
same,T/C,[4],79 % of control
same,T/C,[5],35 % of control
same,T/C,[6],24 % of control
same,T/C,"endpoint: median tumor weight change, dose: 125.0 mg/kg/injection, schedule: Q01DX001 (ip), vehicle: Klucel (hydroxypropylcellulose) (HPC)",92 % of control
same,T/C,"endpoint: median tumor weight change, dose: 250.0 mg/kg/injection, schedule: Q01DX001 (ip), vehicle: Klucel (hydroxypropylcellulose) (HPC)",80 % of control
same,T/C,"endpoint: median tumor weight change, dose: 500.0 mg/kg/injection, schedule: Q01DX001 (ip), vehicle: Klucel (hydroxypropylcellulose) (HPC)",37 % of control
CC1/C=C/C=C/CC/C=C/C=C/C=C/C=C/C(OC2OC(C)C(O)C(N)C2O)CC2OC(CC(O)C(O)CCC(O)CC(O)CC(O)CC(=O)OC(C)C(C)C1O)CC(O)C2C(=O)O (stereo not drawn),T/C,"endpoint: median tumor weight change, dose: 31.25 mg/kg/injection, schedule: Q01DX001 (ip), vehicle: saline with Tween-80",124 % of control
same,T/C,"endpoint: median tumor weight change, dose: 62.5 mg/kg/injection, schedule: Q01DX001 (ip), vehicle: saline with Tween-80",84 % of control
COC1C(OC(=O)/C=C/C=C/C=C/C=C/C(=O)O)CCC2(CO2)C1C1(C)OC1CC=C(C)C (stereo not drawn),T/C,"endpoint: median tumor weight (est.), dose: 25.0 mg/kg/injection, schedule: Q07DX005 (ip), vehicle: suspension in saline",102 % of control
same,T/C,"endpoint: median tumor weight (est.), dose: 50.0 mg/kg/injection, schedule: Q07DX005 (ip), vehicle: suspension in saline",106 % of control
same,T/C,"endpoint: median tumor weight (est.), dose: 100.0 mg/kg/injection, schedule: Q07DX005 (ip), vehicle: suspension in saline",91 % of control
same,T/C,"endpoint: median tumor weight (est.), dose: 200.0 mg/kg/injection, schedule: Q07DX005 (ip), vehicle: suspension in saline",94 % of control
same,T/C,"endpoint: median tumor weight change, dose: 125.0 mg/kg/injection, schedule: Q01DX001 (ip), vehicle: suspension in saline",85 % of control
same,T/C,"endpoint: median tumor weight change, dose: 250.0 mg/kg/injection, schedule: Q01DX001 (ip), vehicle: suspension in saline",56 % of control
same,T/C,"endpoint: median tumor weight change, dose: 500.0 mg/kg/injection, schedule: Q01DX001 (ip), vehicle: suspension in saline",58 % of control
O=C([CH-]C(=O)C(F)(F)F)c1ccccc1.O=C([CH-]C(=O)C(F)(F)F)c1ccccc1.O=C([CH-]C(=O)C(F)(F)F)c1ccccc1.O=C([CH-]C(=O)C(F)(F)F)c1ccccc1.[Eu+3].c1ccncc1,T/C,"endpoint: median tumor weight (est.), dose: 12.5 mg/kg/injection, schedule: Q07DX005 (ip), vehicle: Klucel (hydroxypropylcellulose) (HPC)",109 % of control
same,T/C,[3],109 % of control
same,T/C,[4],103 % of control
same,T/C,[5],95 % of control
same,T/C,[7],110 % of control
S=C=NCCc1ccccc1,T/C,[1],120 % of control
same,T/C,[2],111 % of control
same,T/C,"endpoint: median tumor weight (est.), dose: 100.0 mg/kg/injection, schedule: Q07DX005 (ip), vehicle: saline with Tween-80",53 % of control
CC1=C[S+](c2ccccc2)c2cccc3cc4ccccc4c1c23 (stereo not drawn),T/C,"endpoint: median tumor weight change, dose: 0.62 mg/kg/injection, schedule: Q01DX001 (ip), vehicle: saline with Tween-80",103 % of control
same,T/C,"endpoint: median tumor weight change, dose: 5.0 mg/kg/injection, schedule: Q01DX001 (ip), vehicle: saline with Tween-80",98 % of control
same,T/C,"endpoint: median tumor weight change, dose: 10.0 mg/kg/injection, schedule: Q01DX001 (ip), vehicle: saline with Tween-80",40 % of control and 59 % of control
CC1C=NNC1=O (stereo not drawn),T/C,[3],20 % of control
same,T/C,[4],187 % of control
same,T/C,[5],234 % of control
same,T/C,[6],182 % of control
same,T/C,[7],23 % of control
Cc1c[nH]c(=O)[nH]c1=O,T/C,"endpoint: median tumor weight (est.), dose: 64.0 mg/kg/injection, schedule: Q07DX005 (ip), vehicle: Klucel (hydroxypropylcellulose) (HPC)",214 % of control and 74 % of control
same,T/C,"endpoint: median tumor weight (est.), dose: 128.0 mg/kg/injection, schedule: Q07DX005 (ip), vehicle: Klucel (hydroxypropylcellulose) (HPC)",112 % of control and 118 % of control
